Measurements as given in patent US20220162163A1, “ALANINE-BASED MODULATORS OF PROTEOLYSIS AND ASSOCIATED METHODS OF USE” (Arvinas Operations, Inc., priority 2015, published 2022).

Target: T1, EZH2 (Homo sapiens, UniProt Q15910)
T1 construct: endogenous in cells; host or cells: MDA-MB-231
Assay: Cellular assay of EZH2 degradation (MDA-MB-231 cells, Western blot)
Assay type: cell-based
Conditions: EZH2, MDA-MB-231 cells, PROTAC concentration 3 μM, relative to DMSO control
Description: Protocol of the Cellular Assay of EZH2 Degradation (MDA-MB-231 Cells, Western Blot).
MDA-MB-231 cells were plated at 10,000 cells per well in 6 well plates, 2 ml/well in DMEM+10% Fetal Bovine Serum. Cells were allowed to grow for 3 days at 37 degrees C. Cells were dosed with PROTACs. On day 3 and day 7 after dosing, cells were harvested and lysed with RIPA buffer. Lysed cells were transferred to eppendorf tubes, and each lysate was sonicated and then spinned in microfuge for 15 minutes at 20,000×g at 4 degrees C. Supernatant was transferred to a clean tube, and protein concentration was quantitated using the Pierce BCA Protein Assay kit (cat #23225). Lysate concentrations were adjusted to 1 microgram/microliter in lysis buffer. For Western blot samples were loaded in 4×LDS buffer, 10 microliters/lane, onto Noxex NuPage 4-12% Bis-Tris Midi Gel […]×26 well.
Gels were run on BioRad power source Model 1000/500, at 200V constant voltage for 1 hour. Gels were then transferred onto a nitrocellulose membrane using an iBlot2 transfer apparatus from Life Technologies. Transfers were done on Program 0 and blocked for 1 hour in TBS-T (Tris Buffered Saline with 0.05% Tween 20)+5% BSA (Bovine Serum Albumin). Block solution was decanted, and the primary antibody solutions were added (EZH2-Cell Signaling #5246S; tri-methyl-Histone H3-Cell Signaling #9733S; Histone H3-Cell Signaling #4499; all diluted 1:1000 in 20 ml TBS-T+5% BSA). The preparation was placed in cold room (4 degrees C.) overnight on rocker platform, after which the antibody solution was decanted. The preparation was washed 3 times in TBS-T for 10 minutes each, and anti-rabbit secondary antibody (Cell Signaling #7074S), diluted 1:20,000 in TBS-T+5% BSA, was added. This was followed by incubating for 1 hour at room temperature with gentle rocking and washing 3 times in TBS-T. To develop blots SuperSignal™ West Femto Maximum Sensitivity Substrate (Life Technologies Catalog number: 34095) solution was applied for 5 minutes. Blots were imaged on BioRad ChemiDoc Imager using the “Chemi Hi Sensitivity” protocol. Bands were quantitated using Image Lab software v 5.2.1.

T1 sequence (Q15910 whole entry): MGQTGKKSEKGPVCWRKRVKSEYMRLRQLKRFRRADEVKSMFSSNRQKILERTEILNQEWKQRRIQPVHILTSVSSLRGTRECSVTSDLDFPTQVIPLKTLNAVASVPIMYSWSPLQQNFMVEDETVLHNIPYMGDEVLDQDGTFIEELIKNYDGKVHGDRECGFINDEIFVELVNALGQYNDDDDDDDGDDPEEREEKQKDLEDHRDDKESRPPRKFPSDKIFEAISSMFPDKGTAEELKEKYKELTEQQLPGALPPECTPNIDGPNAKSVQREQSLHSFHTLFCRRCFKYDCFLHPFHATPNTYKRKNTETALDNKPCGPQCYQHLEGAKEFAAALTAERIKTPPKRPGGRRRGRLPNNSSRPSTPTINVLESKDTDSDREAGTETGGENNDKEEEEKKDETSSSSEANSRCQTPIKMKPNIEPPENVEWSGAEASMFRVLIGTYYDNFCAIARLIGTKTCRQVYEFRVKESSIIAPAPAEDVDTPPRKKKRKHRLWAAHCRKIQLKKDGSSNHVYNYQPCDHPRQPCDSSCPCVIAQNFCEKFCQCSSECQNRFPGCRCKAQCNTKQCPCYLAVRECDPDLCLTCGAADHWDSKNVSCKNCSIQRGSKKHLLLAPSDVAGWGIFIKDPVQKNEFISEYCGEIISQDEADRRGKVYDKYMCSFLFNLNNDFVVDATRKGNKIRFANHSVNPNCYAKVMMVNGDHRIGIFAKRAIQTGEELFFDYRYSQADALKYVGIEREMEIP
T1 sequence (O75530 whole entry partner): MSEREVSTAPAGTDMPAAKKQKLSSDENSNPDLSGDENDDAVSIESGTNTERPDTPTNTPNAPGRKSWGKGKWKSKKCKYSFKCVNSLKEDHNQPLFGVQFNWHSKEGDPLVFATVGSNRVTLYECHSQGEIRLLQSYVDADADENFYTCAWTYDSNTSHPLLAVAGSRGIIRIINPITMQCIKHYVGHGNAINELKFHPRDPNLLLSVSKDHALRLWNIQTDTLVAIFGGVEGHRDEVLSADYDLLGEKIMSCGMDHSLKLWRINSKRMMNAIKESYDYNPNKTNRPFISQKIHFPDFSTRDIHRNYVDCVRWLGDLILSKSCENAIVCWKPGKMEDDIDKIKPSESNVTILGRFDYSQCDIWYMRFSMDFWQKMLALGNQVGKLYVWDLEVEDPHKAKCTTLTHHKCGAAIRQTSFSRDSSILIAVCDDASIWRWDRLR
T1 sequence (Q15022 whole entry partner): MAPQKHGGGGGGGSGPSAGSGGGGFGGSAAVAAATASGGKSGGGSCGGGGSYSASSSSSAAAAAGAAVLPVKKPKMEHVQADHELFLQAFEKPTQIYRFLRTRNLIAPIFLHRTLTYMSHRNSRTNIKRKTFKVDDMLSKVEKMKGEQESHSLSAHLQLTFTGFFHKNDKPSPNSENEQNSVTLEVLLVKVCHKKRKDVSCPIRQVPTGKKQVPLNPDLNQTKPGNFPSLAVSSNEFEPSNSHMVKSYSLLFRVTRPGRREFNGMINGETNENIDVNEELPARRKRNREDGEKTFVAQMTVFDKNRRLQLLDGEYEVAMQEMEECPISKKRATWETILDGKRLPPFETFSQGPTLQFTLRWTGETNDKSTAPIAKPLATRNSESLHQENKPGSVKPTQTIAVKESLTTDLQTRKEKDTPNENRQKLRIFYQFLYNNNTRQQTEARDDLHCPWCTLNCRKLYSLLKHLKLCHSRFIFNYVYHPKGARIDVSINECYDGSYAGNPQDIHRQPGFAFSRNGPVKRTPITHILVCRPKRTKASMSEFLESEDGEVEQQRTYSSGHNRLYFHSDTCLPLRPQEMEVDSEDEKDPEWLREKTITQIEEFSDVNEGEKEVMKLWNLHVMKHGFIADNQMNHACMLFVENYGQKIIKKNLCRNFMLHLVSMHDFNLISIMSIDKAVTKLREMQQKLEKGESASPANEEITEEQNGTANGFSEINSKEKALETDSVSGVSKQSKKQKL

Target protein degradation range: B (degradation between 30% and 60%)
SMILES: CCN(c1cc(-c2ccc(OCCOCCOCCOCCOCCOc3ccc(-c4csc([C@@H]5CCCN5C(=O)[C@@H](NC(=O)[C@H](C)NC)C5CCCCC5)n4)c4ccccc34)cc2)cc(C(=O)NCc2c(C)cc(C)[nH]c2=O)c1C)C1CCOCC1 [Example 11, 5-(4-[[1-(4-[2-[(2S)-1-[(2S)-2-cyclohexyl-2-[(2S)-2-(methylamino)propanamido]acetyl]pyrrolidin-2-yl]-1,3-thiazol-4-yl]naphthalen-1-yl)-1,4,7,10,13-pentaoxapentadecan-15-yl]oxy]phenyl)-N-[(4,6-dimethyl-2-oxo-1,2-dihydropyridin-3-yl)methyl]-3-[ethyl(oxan-4-yl)amino]-2-methylbenzamide]
